Experimental data from patent US10919889B2, “Chiral heterocyclic compound with hedgehog pathway antagonist activity, method and use thereof” (SUZHOU KINTOR PHARMACEUTICALS, INC., priority 2016, dated 2021).
Values joined by “and” are separate entries in the source; they are usually repeats but may differ in a detail not shown here. Equal entries are not always repeated. Where two headings read alike, the source gives them in different places. Each block holds one compound with its values, some of them ahead of it.

What was measured:
[1] = system: Hh signaling pathway; assay: NIH3T3-GRE-Luc luciferase reporter assay (primary assay); format: cell-based
From the text: NIH3T3 cells (CRL-1658, ATCC) were maintained in DMEM (Gibico) supplemented with 10% FBS (Hyclone). GRE-Luc plasmid was generated by inserting 8×Gli-1 responsive element (GRE) into the multiple cloning site of pGL4.26 vector (Promega). NIH3T3-GRE-Luc reporter cell line was established by hygromycin (Invitrogen) selection after transfected with GRE-Luc luciferase reporter plasmid. Single clones were validated by the induction of luciferase by recombinant sonic hedgehog (sHh) protein or small molecule agonist SAG (ABIN629346). Selected clone was used to monitor the Hh signaling.
(§1) The NIH3T3-GRE-Luc cells were maintained in complete culture medium (DMEM with 4 mM L-Gln, 1.5 g/L sodium bicarbonate and 4.5 g/L glucose supplemented with 100 μg/mL hygromycin and 10% FBS). When confluent, the cells were trypsinized and re-suspended in assay medium (0.5% serum-containing DMEM). After 100 µL/well of cells suspension was added to the 96-well-plate (Final cell concentration is 15,000 cells/well), cells were cultured for additional 48 hours before adding the compounds.
Compounds were serially diluted in DMSO and further diluted with assay medium. In an embodiment, 10 nM SAG was added in assay medium as the agonist of Hh signaling. After the compounds and agonist were prepared, the medium was removed carefully. 100 μL of assay medium containing compound and agonist was added to the cell with care. Cell plates were incubated at 37° C. for additional 48 hours.
(§2) Following the 48 hours incubation, 40 μL/well of luciferase media (Brigh-Glo, Promega) was added to the cells. The plate was incubated at room temperature for 5 minutes under gentle shaking. Luminescence signal was measured with plate reader (PHERAstar FS, BMG). The potency of compounds was calculated based on the inhibition of luminescence signaling.
NIH3T3 cells (CRL-1658, ATCC) were maintained in DMEM (11965, Gibico) supplemented with 10% FBS (Hyclone). GRE-Luc plasmid was generated by cloning 8×Gli-1 responsive element (GRE) into the MCS of pGL4.26 (Promega). NIH3T3-GRE-Luc reporter cell lines were established by hygromycin (Invitrogen) selection after transfection with GRE-Luc luciferase reporter plasmid. Single clones were validated for the assay quality with N-terminal fragment of recombinant sonic hedgehog protein or small molecule agonist SAG (ABIN629346). Selected clone were used to monitor the Hh signaling.
as §1, with “ug/ml” for “μg/mL”, “resuspended” for “re-suspended”, “ul/well” for “µL/well”
Compounds were serially diluted in DMSO and further diluted with assay medium. In an embodiment, 10 nM SAG was added in assay medium as the agonist of Hh signaling. After the compounds and agonist were prepared, carefully remove medium (Aspirate the medium with pipette instead of vacuum, or else the NIH3T3 cells monolayer will be detached). 100 ul of assay medium containing compound or agonist was added to the cell with care. Cell plates were incubated at 37 degree for additional 48 hours.
as §2, with “ul/well” for “μL/well”, “min” for “minutes”, “basing” for “based”

[2] = system: Hh signaling pathway; conditions: cited from earlier work
[3] = Rat pharmacokinetics experiments; format: in vivo, Sprague-Dawley rats; conditions: for AUC(0-t): read-out: Area under the curve AUC0-24 h; for bioavailability: po
Procedure: Male Spraguee-Dawley rats (body weight: 220 g˜250 g) were purchased from Slac Laboratory Animals (Shanghai). […] Blood samples were taken through the posterior orbital vein and the blood samples were placed in a tube containing EDTA (as an anticoagulant) and stored in a −80° C. environment after centrifugation with a refrigerated centrifuge. Blood sample (at an amount of folds of 25 μL) was taken and cold acetonitrile containing the internal standard (100 μL) was added. Sample was centrifuged for 10 minutes to precipitate the plasma protein. Finally, supernatant (10 μL) was injected into the LC-MS/MS system for analysis.
LC-MS/MS analysis method: All samples were analyzed by LC-MS/MS system of API4000 QTRAP mass spectrometer equipped with LC-20AD and CBM-20A controllers, DGU-20A solvent degasser and SIL-20A autosampler (Japan Shimadzu, Colombia, Md., USA). A Bona Aeger Venusil XBP C18 column (50×2.1 mm; filler 5 micron particle size) was used for HPLC separation. The column temperature was maintained at 40° C. The flow rate was 0.3 mL/min and the total run time was 6 minutes.
For the quantification of MS/MS, the API4000 QTRAP mass spectrometer was operated in an ESI positive mode with multiple reaction monitoring (MRM). All compounds and internal standards were set to be monitored during a residence time of 100 milliseconds. The other MS/MS parameters were set as follows: atomization gas (GS1) at 30 psi, 551b turbine pressure, 4500V ion spray voltage, 500° C. ion source temperature. For the selected ion transitions, each analyte was tested at the optimal sensitivity of the cluster potential (DP) and the collision energy (CE). Finally, the data was collected and processed using AB SCIEX Analysist 1.5.2 data collection and integration software.
Test subjects, Sprague-Dawley rats (body weight from about 220 g to about 250 g), were purchased from Slac Laboratory Animals (Shanghai, China). All compounds tested at 1 mg/mL concentration, either intravenous injected at a tail vein at 1 mL/kg dosage for one group of test subjects or administered orally at a dose of 10 mL/kg in another group of test subjects. Then aliquots of blood samples were collected by retro-orbital venous plexus puncture at time intervals after the injection/administration. The blood samples were kept in tubes containing EDTA, centrifuged and stored at −80° C. before analysis. Blank plasma was collected by the same method before rats were treated with compounds. Plasma samples for analysis were obtained by removing about 25 μL from the saved blood sample; adding cold acetonitrile (about 100 μL) as internal standard; centrifuged for 10 minutes to precipitate plasma proteins; and collect about 10 μL of the upper clear solution for analysis done by an LC-MS/MS system.
All samples were analyzed by an API 4000 QTRAP® LC/MS/MS System equipped with Shimadzu LC-20AD pump, Shimadzu CBM-20A controller, SIL-20A autosampler and DGU-20A degasser (Shimadzu, Columbia, Md., USA). A Venusil XBP C18 HPLC Column (2.1×50 mm, 5 μm) (Bonna-Agela Technologies) was used for HPLC separation at isocratic temperature of 40° C. Flow rate was kept at 0.3 mL/min and the total run time was kept at 6 minutes.
Quantification by MS/MS is done using the above-described API 4000 QTRAP mass spectrometer equipped with multiple reaction monitoring (MRM) and positive electrospray ionization (ESI+) modes. All compounds and internal standard were detected at […] of about 100 milliseconds. Other parameters for MS/MS are shown below: Ion Source Gas 1 (GS1) at 30 psi, turbine pressure at 55 pounds, ion spray voltage at 4500 V, and ion source temperature at 500° C. MRM measurements of the analytes were performed using declustering potential (DP) and […] values optimized for each analyte. Finally, all of the operations, the acquisition and analysis of data were controlled by Analyst (version 1.5.2, AB Sciex, USA).

[4] = Oxidative metabolism found in pharmacokinetic studies; conditions: benzylic oxidation at the C-5 methylene group
[5] = IC50 value of Vismodegib over that of the tested compound in the same assay
[6] = primary assay, Table 5, read-out: SMO IC50
[7] = previous patent, read-out: IC50 of NIH3T3-GRE-Luc, reported in WO2014113191A1

SMILES: Cc1cnc(-c2cc(N3CCc4nc(N5CCC(O)C5)ncc4C3=O)ncc2Cl)c(C)c1 (stereo not shown) [C]
Ratio [1, 5]: 0.16
IC50 [1, 6]: 272 nM

SMILES: Cc1cnc(-c2cc(N3CCc4nc(N5CCC(O)CC5)ncc4C3)ncc2Cl)c(C)c1 [Compound A-55, reference compound]
IC50 [2, 7]: 5.5 nM
AUC0-24 h ([3]; I.V., 2 mg/kg): 1780 ng·h/mL
CL ([3]; I.V., 2 mg/kg): 18.6 mL/min/kg
t1/2 ([3]; I.V., 2 mg/kg): 1 h
AUC0-24 h ([3]; P.O., 10 mg/kg): 5540 ng·h/mL
Vd ([3]; male, Sprague-Dawley, plasma, intravenous injection, 2 mg/kg, read-out: Apparent volume of distribution Vd, ss): 1.7 L/kg
AUC(0-t) ([3]; male, Sprague-Dawley, plasma, intravenous injection, 2 mg/kg): 1780 ng·h/mL
clearance ([3]; male, Sprague-Dawley, plasma, intravenous injection, 2 mg/kg, read-out: Clearance CL): 18.6 mL/min/kg
half-life ([3]; male, Sprague-Dawley, plasma, intravenous injection, 2 mg/kg, read-out: Half-life t1/2 (converted)): 1 h
AUC(0-t) ([3]; male, Sprague-Dawley, plasma, oral, 10 mg/kg): 5540 ng·h/mL
Cmax ([3]; male, Sprague-Dawley, plasma, oral, 10 mg/kg, read-out: Maximum plasma concentration Cmax): 2180 ng/mL
Tmax ([3]; male, Sprague-Dawley, plasma, oral, 10 mg/kg, read-out: Peak time Tmax): 0.5 h
bioavailability ([3]; male, Sprague-Dawley, plasma, 10 mg/kg, P.O. 10 mg/kg vs I.V. 2 mg/kg, read-out: F %): 62%
bioavailability ([3]; male, Sprague-Dawley, plasma, 10 mg/kg, oral 10 mg/kg vs intravenous 2 mg/kg, read-out: Bioavailability F %): 62%
bioavailability ([3]; male, Sprague-Dawley, plasma, 10 mg/kg, oral, read-out: bioavailability): 62%
susceptibility to oxidative metabolism (in words) [4]: easy to metabolized via benzylic oxidation

SMILES: Cc1cnc(-c2cc(N3CCc4nc(N5CCC(O)CC5)ncc4C3=O)ncc2Cl)c(C)c1 [Compound A-97]
ratio to vismodegib (relative efficacy), WO2014113191A1 ([2]; previous patent): about 0.5 fold
ratio to vismodegib (relative efficacy), WO2014113191A1 ([2]; previous patent, listed as A97): 0.54 fold
IC50 [2, 7]: 84 nM

SMILES: Cc1cnc(-c2cc(N3CCc4nc(N5CCC(O)CC5)ncc4[C@@H]3C)ncc2Cl)c(C)c1 [Compound B2, (S)-1-(6-(5′-chloro-3,5-dimethyl-[2,4′-bipyridin]-2′-yl)-5-methyl-5,6,7,8-tetrahydropyrido[4,3-d]pyrimidin-2-yl)piperidin-4-ol]
Hh pathway inhibitory activity (in words) [1]: relatively poor
IC50 ([1]; 48 h, 10 nM SAG as agonist, 48 hours, read-out: Effect IC50 (nM)(GRE reporter assay)): 17 nM
Ratio ([1]; IC50 of vismodegib over that of the tested compound in the same assay): 1.1
Ratio [1, 5]: 1.1
IC50 [1, 6]: 17 nM

SMILES: Cc1cnc(-c2cc(N3CCc4nc(NC5CC5)ncc4[C@@H]3C)ncc2Cl)c(C)c1 [Compound B3, (5 S)-6-[5-chloro-4-(3,5-dimethyl-2-pyridyl)-2-pyridyl]-N-cyclopropyl-5-methyl-7,8-dihydro-5H-pyrido[4,3-d]pyrimidin-2-amine]
Ratio [1, 5]: 3.1
IC50 [1, 6]: 4 nM

SMILES: Cc1cnc(-c2cc(N3CCc4nc(NC5CC5)ncc4[C@H]3C)ncc2Cl)c(C)c1 [Compound B4, (R)-6-(5′-Chloro-3,5-dimethyl-[2,4′-bipyridin]-2′-yl)-N-cyclopropyl-5-methyl-5,6,7,8-tetrahydropyrido[4,3-d]pyrimidin-2-amine]
Ratio [1, 5]: 8.1
IC50 [1, 6]: 2.2 nM

SMILES: CCC(=O)Nc1ncc2c(n1)CCN(c1cc(-c3ncc(C)cc3C)c(Cl)cn1)[C@@H]2C [Compound B5, (R)—N-(6-(5′-chloro-3,5-dimethyl-[2,4′-bipyridin]-2′-yl)-5-methyl-5,6,7,8-tetrahydropyrido[4,3-d]pyrimidin-2-yl)propionamide]
Ratio [1, 5]: 0.35
IC50 [1, 6]: 75 nM

Second part, led by results:

IC50 [1, 6]: 3.9 nM
SMILES: Cc1cnc(-c2cc(N3CCc4nc(NC(=O)C(C)(C)C)ncc4[C@H]3C)ncc2Cl)c(C)c1 [Compound B6, (R)—N-(6-(5′-chloro-3,5-dimethyl-[2,4′-bipyridin]-2′-yl)-5-methyl-5,6,7,8-tetrahydropyrido[4,3-d]pyrimidin-2-yl)pivalamide]
Ratio [1, 5]: 6.7

IC50 [1, 6]: 4.2 nM
SMILES: Cc1cnc(-c2cc(N3CCc4nc(N5CCC(O)C5)ncc4C3C)ncc2Cl)c(C)c1 (stereo not shown) [D]
Ratio [1, 5]: 3.2

IC50 [1, 6]: 7.7 nM
SMILES: Cc1cnc(-c2cc(N3CCc4nc(NCC5CC5)ncc4C3C)ncc2Cl)c(C)c1 (stereo not shown) [E]
Ratio [1, 5]: 1.74

IC50 [1, 6]: 4.4 nM
SMILES: Cc1cnc(-c2cc(N3CCc4nc(NC5CC5)ncc4C3C)ncc2Cl)c(C)c1 (stereo not shown) [F]
Ratio [1, 5]: 4.5

IC50 ([1]; vismodegib control in the same assay as the test compound of the line, read-out: Effect IC50 (nM)(GRE reporter assay: vismodegib)): 13.4 nM and 17.9 nM and 19.3 nM
IC50 ([1]; vismodegib control in the same assay as the test compound of the line, read-out: SMO IC50 (nM) (vismodegib)): 26 nM
SMILES: CS(=O)(=O)c1ccc(C(=O)Nc2ccc(Cl)c(-c3ccccn3)c2)c(Cl)c1 [vismodegib, reference compound]
IC50 ([2]; reference in the run of A-55 (8.8) and of A-97 (45), read-out: IC50 of reference vismodegib, reported in WO2014113191A1): 8.8 nM and 45 nM
